Laboratory results from paper PMC9697446 (International Journal of Molecular Sciences, 2022).
“And” between values parts separate entries of the source, which are not always exact repeats. Equal entries are not always repeated. Where two headings read alike, the source gives them in different places.

Key:
[1] = biological target: T1, equine serum BChE (Equus caballus, UniProt P81908); assay: biochemical; conditions: n = 3; for IC50: IC50 ± SEM
T1 construct: the equine serum BChE, and the porcine liver CES; purchased Sigma-Aldrich; host or cells: equine serum
T1 sequence (P81908 whole entry): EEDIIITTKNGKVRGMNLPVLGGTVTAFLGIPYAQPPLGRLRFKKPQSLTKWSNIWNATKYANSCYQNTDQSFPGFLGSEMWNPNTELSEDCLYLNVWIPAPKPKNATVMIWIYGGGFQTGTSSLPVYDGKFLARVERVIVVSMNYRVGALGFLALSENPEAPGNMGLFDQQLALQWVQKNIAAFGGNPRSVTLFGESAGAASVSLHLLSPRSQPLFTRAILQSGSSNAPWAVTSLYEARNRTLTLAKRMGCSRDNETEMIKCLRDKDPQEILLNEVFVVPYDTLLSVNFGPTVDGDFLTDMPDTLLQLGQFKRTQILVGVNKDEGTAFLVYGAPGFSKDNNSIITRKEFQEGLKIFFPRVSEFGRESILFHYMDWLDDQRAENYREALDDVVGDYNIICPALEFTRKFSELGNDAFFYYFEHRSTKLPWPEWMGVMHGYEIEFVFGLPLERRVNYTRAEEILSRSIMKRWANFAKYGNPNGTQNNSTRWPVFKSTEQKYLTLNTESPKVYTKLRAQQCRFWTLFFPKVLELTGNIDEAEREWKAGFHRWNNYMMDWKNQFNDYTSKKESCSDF
Procedure: (§1) The esterase profile was estimated using the human erythrocyteAChE, the equine serum BChE, and the porcine liver CES.
(§2) Human erythrocyte AChE, equine serum BChE, porcine liver CES, acetylthiocholine iodide (ATCh), butyrylthiocholine iodide (BTCh), 5,5′-dithio-bis-(2-nitrobenzoic acid) (DTNB), 4-nitrophenol acetate (4-NPA), and BNPP were purchased from Sigma-Aldrich (St. Louis, MO, USA).
(§3) AChE and BChE activities were measured via the Ellman method. The assay solution consisted of 0.1 M K/Na phosphate buffer pH 7.5, 25 °C with the addition of 0.33 mM DTNB, 0.02 unit/mL of AChE or BChE and 1 mM of substrate (ATCh or BTCh, respectively). The assays were carried out with a reagent blank containing all components (except AChE orBChE) in order to account for the non-enzymatic hydrolysis of the substrate. In addition, an enzyme blank was included that contained all components except substrate to account for non-substrate sulfhydryl groups.
(§4) The test compounds were dissolved in DMSO, and the incubation mixture contained 2% (v/v) of the solvent. Enzyme inhibition was first assessed at a single concentration of 20 µM for each compound after a 5 min incubation at 25 °C in three separate experiments. […] The test compounds were added to the assay solution and preincubated at 25 °C with the enzymes for 5 min, followed by the addition of substrate. A parallel control was made for the assay solution with no inhibitor. Measurements were performed with a FLUOStar Optima microplate reader (BMG Labtech, Ortenberg, Germany). Each experiment was performed in triplicate. The results were expressed as the mean ± SEM. The reaction rates in the presence and absence of the inhibitor were compared, and the percent of residual enzyme activity due to the presence of test compounds was calculated.

[2] = biological target: T2, human erythrocyte AChE (Homo sapiens, UniProt P22303); assay: biochemical; conditions: IC50 ± SEM, n = 3
T2 construct: The esterase profile was estimated using the human erythrocyteAChE; purchased Sigma-Aldrich; host or cells: human erythrocytes
T2 sequence (P22303 32-617 isoform P22303-2 limits assumed): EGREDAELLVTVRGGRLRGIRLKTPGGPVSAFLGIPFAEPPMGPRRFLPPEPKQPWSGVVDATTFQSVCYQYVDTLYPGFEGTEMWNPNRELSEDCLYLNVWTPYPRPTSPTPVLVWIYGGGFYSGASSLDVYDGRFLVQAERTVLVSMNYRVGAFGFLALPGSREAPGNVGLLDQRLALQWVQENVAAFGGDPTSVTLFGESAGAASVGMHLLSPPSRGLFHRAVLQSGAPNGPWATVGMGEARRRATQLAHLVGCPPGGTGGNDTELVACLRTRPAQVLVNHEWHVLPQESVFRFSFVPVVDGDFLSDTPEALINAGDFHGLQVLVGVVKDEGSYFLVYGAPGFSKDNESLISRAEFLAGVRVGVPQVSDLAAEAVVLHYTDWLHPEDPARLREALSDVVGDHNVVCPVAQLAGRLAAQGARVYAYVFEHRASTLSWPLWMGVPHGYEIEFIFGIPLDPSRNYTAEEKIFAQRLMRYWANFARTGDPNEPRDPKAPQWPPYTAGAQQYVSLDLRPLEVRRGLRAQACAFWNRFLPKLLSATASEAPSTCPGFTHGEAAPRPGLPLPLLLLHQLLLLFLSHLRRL
Procedure: as §1, §2, §3, §4

[3] = biological target: T3, EeAChE PAS (Electrophorus electricus, UniProt O42275); assay: biochemical; format: binding; conditions: for inhibition at 3 µM: read-out: PI Displacement, 3 µM; for inhibition at 20 µM: read-out: PI Displacement, 20 µM
T3 construct: purchased Sigma-Aldrich type VI-S
T3 sequence (O42275 24-633): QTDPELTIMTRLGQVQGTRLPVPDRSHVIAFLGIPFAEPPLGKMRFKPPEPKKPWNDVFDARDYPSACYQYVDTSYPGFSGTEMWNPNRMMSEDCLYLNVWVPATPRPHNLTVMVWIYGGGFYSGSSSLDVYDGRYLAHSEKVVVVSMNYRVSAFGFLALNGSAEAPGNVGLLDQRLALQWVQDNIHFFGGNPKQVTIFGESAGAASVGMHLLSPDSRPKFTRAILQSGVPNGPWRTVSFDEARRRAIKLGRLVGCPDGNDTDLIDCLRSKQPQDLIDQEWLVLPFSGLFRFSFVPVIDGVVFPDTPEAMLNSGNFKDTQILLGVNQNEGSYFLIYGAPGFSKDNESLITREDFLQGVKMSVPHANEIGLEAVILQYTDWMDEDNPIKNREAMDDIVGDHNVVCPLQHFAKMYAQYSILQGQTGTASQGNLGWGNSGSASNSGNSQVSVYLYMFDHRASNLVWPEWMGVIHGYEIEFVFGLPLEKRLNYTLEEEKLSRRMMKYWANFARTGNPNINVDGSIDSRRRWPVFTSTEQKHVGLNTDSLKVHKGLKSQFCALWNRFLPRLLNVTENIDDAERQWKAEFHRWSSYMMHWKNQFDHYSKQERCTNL
Procedure: PIand donepezil were purchased from Sigma-Aldrich. […] As the source of the enzyme, electric eel (Elecrophorus electricus) AChE (EeAChE, type VI-S, lyophilized powder, Sigma-Aldrich, Saint Louis, MO, USA) was used. The applicability of this enzyme was shown earlier
To determine the percentage of displacement of PI from the EeAChE PAS, EeAChE (with a final concentration of 7 μM) was incubated with the test compound at a concentration of 3 and 20 μM in 1 mM Tris-HCl buffer pH 8.0, 25 °C for 15 min. Next, PIsolution (with a final concentration of 8 μM) was added, the samples were incubated for 15 min, and the fluorescence spectrum (530 nm (exc.) and 600 nm (emiss.)) was taken. Donepezil and decamethonium were used as reference compounds. The blank contained PI of the same concentration in 1 mM Tris-HCl buffer pH 8.0. The measurements were carried out in triplicate on a FLUOStar Optima microplate reader).
The percentage of displacement of PIfrom the peripheral anionic site of AChE was calculated using the following formula:% Displacement = 100 − (IFAChE+Propidium+inhibitor/IFAChE+Propidium) × 100,(1) where IFAChE+Propidium is the fluorescence intensity of the propidium associated with AChE in the absence of the test compound (taken as 100%) and IFAChE+Propidium+inhibitor is the fluorescence intensity of the propidium associated with AChE in the presence of the test compound.

[4] = ABTS radical cation scavenging assay; conditions: 1 h incubation, means ± SEM (n = 3); for IC50: 50% reduction of ABTS radical; for ABTS Scavenging Activity, TEAC Value: Trolox equivalent antioxidant capacity
Procedure: The ABTS assay is based on the direct binding of a model ABTS radical cation (2,2′-azino-bis-(3-ethylbenzothiazoline-6-sulfonate), ABTS^•+) by antioxidants. The measurements were performed as previously described in detail.
The radical scavenging activity was expressed as TEAC values (Trolox equivalent antioxidant capacity) and determined as the ratio between the slopes obtained from the linear correlation of the ABTS radical absorbance with the concentrations of the test compounds and Trolox.
The radical scavenging activity of the compounds was assessed using an ABTS radical decolorization assay. The procedure followed the reported protocol with minor modifications. ABTS (2,2ʹ-azino-bis-(3-ethylbenzothiazoline-6-sulfonic acid) diammonium salt) was purchased from TCI (Tokyo, Japan), while potassium persulfate (di-potassium peroxodisulfate), Trolox (6-hydroxy-2,5,7,8-tetramethylchroman-2-carboxylic acid), catechol, and DMSO were received from Sigma-Aldrich Chemical Co. (St. Louis, MO, USA). The ethanol was HPLC grade. Aqueous solutions were prepared using deionized water.
Trolox was used as the standard reference compound. Catechol was used as the positive control. All test and reference compounds were dissolved in DMSO. The final concentration of DMSO in the reaction mixture was 4% (v/v).
The solution of ABTS radical cation (ABTS^•+) was produced by mixing a 7 mM ABTS stock solution with a 2.45 mM aqueous solution of potassium persulfate in equal quantities and allowing them to react for 12–16 h at room temperature in the dark. At the time of activity determination, the ABTS^•+ solution was diluted with ethanol to adjust it to an absorbance value of about 0.80 ± 0.05 at 734 nm. A fresh working solution of ABTS^•+ was prepared for each assay.
The radical scavenging capacity of the compounds was analyzed by mixing 10 μL of test compound with 240 μL of ABTS^•+ working solution. The reduction in absorbance was measured spectrophotometrically at 734 nm using an xMark microplate UV/VIS spectrophotometer (Bio-Rad, Hercules, CA, USA). The reaction was monitored for an hour at 10 min intervals. Data were given for 1 h of incubation of compounds with ABTS^•+. EtOH blanks were run in each assay. The results were obtained from three replicates of each sample and three independent experiments.
The antioxidant capacity as a Trolox equivalent (TEAC values) was determined as the ratio between the slopes obtained from the linear correlation of concentrations of test compounds and Trolox with absorbance of ABTS radical.

[5] = Oxygen radical absorbance capacity assay (ORAC-FL); conditions: Trolox equivalent, Trolox = 1; means ± SEM (n = 3)
Source text: The method is based on the measurement of the fluorescence intensity characterizing the degree of destruction of the fluorescence probe under the action of peroxyl radicals.
The peroxyl radical scavenging capacity of the test compounds was characterized in terms of the Trolox equivalent (TE), which is equal to the ratio of the Trolox concentration to the concentration of a test compound when they show equal fluorescence intensities in the assay. The peroxyl radical scavenging capacity of Trolox was set as 1 [67, 68].
2,2´-Azobis(amidinopropane) dihydrochloride (AAPH), (±)-6-hydroxy-2,5,7,8-tetramethylchroman-2-carboxylic acid (Trolox), and fluorescein (FL) were purchased from Sigma-Aldrich. The reaction was carried out at 37 °C in 75 mM K,Na phosphate buffer (pH 7.4), and the final reaction mixture was 200 µL. The test compounds and the Trolox standard were dissolved in DMSO to 10 mM and further diluted in a 75 mM K,Na phosphate buffer (pH 7.4). The final concentrations were 0.1–1 µM for the test compounds and 1–6 µM for the Trolox. The blank was composed of 20 µL of a 75 mM K,Na phosphate buffer (pH 7.4) containing 20% (v/v) DMSO, 120 µL of FL and 60 µL of AAPH, and it was added in each assay. The antioxidant (20 µL) and FL (120 µL, final concentration: 70 nM) solutions were placed in a black 96-well microplate and were preincubated for 15 min at 37 °C. A solution of AAPH (60 µL, final concentration: 12 mM) was then added rapidly using a multichannel pipette. The microplate was immediately placed in the reader, and the fluorescence was recorded every minute for 100 min. The microplate was automatically shaken prior to each reading. The Trolox standard curve was also obtained in each assay. All reactions were carried out in triplicate, and at least three different assays were performed for each sample.
The antioxidant curves (fluorescence vs. time) were first normalized to the curve of the blank (without the antioxidant) corresponding to the same assay, and the area under the fluorescence decay curve (AUC) was calculated. The net AUC corresponding to a sample was calculated by subtracting the AUC corresponding to the blank. Regression equations were calculated by plotting the net AUC against the antioxidant concentration. The ORAC Tolox equivalent value (TE) was obtained by dividing the slope of the latter curve by the slope of the Trolox curve obtained in the same assay. The ability of Trolox to scavenge the peroxyl radical was equal to 1 [64, 65]. […] The data are expressed as means ± SEM.

[6] = compound 3 µM, EeAChE 7 µM, PI 8 µM, means ± SEM (n = 3)
[7] = compound 20 µM, EeAChE 7 µM, PI 8 µM, means ± SEM (n = 3)

| Structure (SMILES) | IC50 [1] [µM] | IC50 [2] [µM] | inhibition at 3 µM [3, 6] [%] | inhibition at 20 µM [3, 7] [%] | IC50 [4] [µM] | ABTS Scavenging Activity, TEAC Value [4] | ORAC, TE Value [5] | inhibition at 20 µM ([1]; 20 µM, ± SEM) [%] | inhibition at 3 µM [3] [%] | inhibition at 20 µM [3] [%] | PI Displacement, 3 µM [3, 6] [%] | PI Displacement, 20 µM [3, 7] [%] |
| --- | --- | --- | --- | --- | --- | --- | --- | --- | --- | --- | --- | --- |
| CN(C)c1ccc2c(c1)Sc1cc(N(C)C)ccc1N2C(=O)CCn1c2c(c3ccccc31)CCC2 [Compound 4a] | 42.13 ± 0.41 | 11.1 ± 0.69 | 12 ± 0.5 | 20.9 ± 0.8 | 21 ± 1.4 | 0.99 ± 0.08 | 6.8±0.4 |  |  |  |  |  |
| CN(C)c1ccc2c(c1)Sc1cc(N(C)C)ccc1N2C(=O)CCn1c2c(c3ccccc31)CCCC2 [Compound 4b] | 48.7 ± 2.09 | 12.3 ± 1.51 | 12.6 ± 0.7 | 27.9 ± 1.1 | 24.3 ± 1.5 | 0.90 ± 0.04 | 8.6 ± 0.1 |  |  |  |  |  |
| Cc1ccc2c(c1)c1c(n2CCC(=O)N2c3ccc(N(C)C)cc3Sc3cc(N(C)C)ccc32)CCCC1 [Compound 4c] | 41.4 ± 1.71 | 4.39 ± 0.26 | 14.9 ± 1.1 | 31.8 ± 0.9 | 17.6 ± 1.8 | 1.13 ± 0.09 | 5.5 ± 0.4 |  |  |  |  |  |
| COc1ccc2c(c1)c1c(n2CCC(=O)N2c3ccc(N(C)C)cc3Sc3cc(N(C)C)ccc32)CCCC1 [Compound 4d] | 52.1 ± 2.7 | 10.5 ± 0.89 | 13.4 ± 0.9 | 28 ± 1.5 | 39.3 ± 1.5 | 0.75 ± 0.05 | 4.8 ± 0.3 |  |  |  |  |  |
| COc1ccc2c(c1)c1c(n2CCC(=O)N2c3ccc(N(C)C)cc3Sc3cc(N(C)C)ccc32)CCC(C)C1 (centres unmarked) [Compound 4e] |  | 9.81 ± 0.18 | 14.8 ± 0.7 | 23 ± 1.3 | 13.7 ± 0.9 | 1.46 and 1.46 ± 0.11 | 13.3 ± 1.3 | 22.9 ± 2 |  |  |  |  |
| CN(C)c1ccc2c(c1)Sc1cc(N(C)C)ccc1N2C(=O)CCn1c2c(c3cc(F)ccc31)CCCC2 [Compound 4f] | 18.4 ± 1.52 | 6.57 ± 0.57 | 14.4 ± 0.8 | 31.9 ± 1.4 | 27.2 ± 1.6 | 0.85 ± 0.04 | 5.6 ± 0.4 |  |  |  |  |  |
| CN(C)c1ccc2c(c1)Sc1cc(N(C)C)ccc1N2C(=O)CCn1c2c(c3cc(OC(F)(F)F)ccc31)CCCC2 [Compound 4h] | 47.6 ± 4.59 | 6.89 ± 0.09 | 19.1 ± 1.1 | 33.8 ± 0.4 | 17.8 ± 1.4 | 1.10 ± 0.10 | 5.8 ± 0.5 |  |  |  |  |  |
| CC1CCc2c(c3cc(OC(F)(F)F)ccc3n2CCC(=O)N2c3ccc(N(C)C)cc3Sc3cc(N(C)C)ccc32)C1 (centres unmarked) [Compound 4i] | 6.07 ± 0.58 | 1.94 ± 0.09 | 20.4 ± 1.8 | 32.5 ± 0.5 | 17.2 ± 1.2 | 1.14 ± 0.11 | 5.1 ± 0.4 |  |  |  |  |  |
| CN(C)c1ccc2c(c1)Sc1cc(N(C)C)ccc1N2C(=O)CCn1c2c(c3ccccc31)CCCCC2 [Compound 4j] | 9.98 ± 0.86 | 10.7 ± 0.67 | 10.3 ± 0.9 | 23.8 ± 1.1 | 16.3 ± 1.4 | 1.15 ± 0.09 | 12.4 ± 0.2 |  |  |  |  |  |
| Cc1ccc2c(c1)c1c(n2CCC(=O)N2c3ccc(N(C)C)cc3Sc3cc(N(C)C)ccc32)CCCCC1 [Compound 4k] | 22.2 ± 0.92 | 12.9 ± 0.53 | 12.1 ± 0.8 | 15.8 ± 0.7 | 15.4 ± 1.3 | 1.20 ± 0.13 | 13.4 ± 1.3 |  |  |  |  |  |
| CN(C)c1ccc2c(c1)Sc1cc(N(C)C)ccc1N2C(=O)CCn1c2c(c3ccccc31)CCCCCC2 [Compound 4m] | 21.7 ± 0.51 | 2.98 ± 0.1 | 17.3 ± 1.2 | 37.4 ± 0.8 | 16.7 ± 1.6 | 1.11 ± 0.07 | 15.7 ± 1.5 |  |  |  |  |  |
| Cc1ccc2c(c1)c1c(n2CCC(=O)N2c3ccc(N(C)C)cc3Sc3cc(N(C)C)ccc32)CCCCCC1 [Compound 4n] | 15.6 ± 1.13 | 6.26 ± 0.01 | 16.7 ± 1.2 | 28.3 ± 1.2 | 14.9 ± 1.2 | 1.20 ± 0.14 | 10.9 ± 0.6 |  |  |  |  |  |
| CN(C)c1ccc2nc3ccc(=[N+](C)C)cc-3sc2c1 [MB, Methylene blue, reference compound] | 11.1 ± 0.12 |  |  |  |  | not detectable | not detectable |  | 20.9 ± 1.9 | 40.8 ± 3.7 |  |  |
| CN(C)c1ccc2c(c1)Sc1cc(N(C)C)ccc1N2 [MBH2, reference compound] | 10.1 ± 0.16 | 1.76 ± 0.09 |  |  |  | not detectable | not detectable |  |  |  | 17.7 ± 1.8 | 36.9 ± 3.3 |
